Measured values from patent publication US20050202505A1, “Method to identify modulators for human 3alpha-hydroxysteroid dehydrogenase” (priority 2001, published 2005).

How the values were obtained:
3a-HSD = target: T1, 3a-HSD (Homo sapiens, UniProt P52895); test: NMR ligand binding (line broadening of ligand resonances in the presence of protein); conditions: ligand resonances in the presence of 3a-HSD
T1 construct: Full length type III 3a-HSD cDNA is amplified by RT-PCR from human fetal brain total RNA; made in house; host or cells: E. coli BL21 (DE3)
T1 sequence (P52895 1-323): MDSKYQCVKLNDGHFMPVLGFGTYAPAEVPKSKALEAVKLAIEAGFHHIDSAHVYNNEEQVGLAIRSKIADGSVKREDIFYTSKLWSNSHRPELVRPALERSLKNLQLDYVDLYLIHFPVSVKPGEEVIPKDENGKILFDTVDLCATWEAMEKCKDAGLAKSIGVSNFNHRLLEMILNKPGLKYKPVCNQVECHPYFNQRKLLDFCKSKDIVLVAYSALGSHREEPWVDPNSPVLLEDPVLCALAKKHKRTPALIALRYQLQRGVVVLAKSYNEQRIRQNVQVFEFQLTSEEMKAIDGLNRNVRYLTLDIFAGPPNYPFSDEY
From the text: Binding of natural ligands is a prerequisite for functionality. One method to detect ligand binding by NMR takes advantage of the increased transverse relaxation rates of the ligand protons when the ligand is bound. Increased line widths in the presence of protein thus indicates binding. Binding experiments of NADP to 3a-HSD are done and check by NMR. In the presence of 3a-HSD, the NADP peaks are broadened so much that they are hardly visible in the spectrum.
(§1) Even then, the maximum achievable concentration of allo-pregnanolone is only about 20 μM. […] Based on the NMR analysis, 3a-HSD appears well-folded and functional in respect to cofactor- and ligand-binding.

[1] = maximum achievable concentration in aqueous NMR sample with co-solvents; assay type: physicochemical; conditions: water with 2% DMSO-d6 and 5% ethanol as co-solvents
Procedure: as §1

[2] = target: T2, recombinant type-3 human 3a-HSD (Homo sapiens, UniProt P52895); test: functional in vitro assay, oxidation of 3H-ALLO to 3H-5α-DHP; assay type: biochemical; conditions: NADP+, pH 7.4, 37° C., read-out: Ki OX
T2 construct: Full length type III 3a-HSD cDNA is amplified by RT-PCR from human fetal brain total RNA; made in house; host or cells: E. coli BL21 (DE3)
T2 sequence (P52895 1-323): T1 sequence (P52895 1-323)
From the text: (§2) Materials: Steroid standards (>98% purity) were purchased from Sigma Chemical Co. ^3H-allopregnanolone (64 Ci/mmol, [9, 11, 12-^3H(N)]-allopregnanolone, herein after referred to as ^3H-ALLO) was purchased from New England Nuclear. ^3H-5α-dihydroprogesterone (^3H-5α-DHP) was synthesized in our lab using an enzymatic conversion of ^3H-ALLO to ^3H-5α-DHP by the 3a-HSD (see Enzymatic reactions). The oxidation product ^3H-5α-DHP was isolated and purified by semi-preparative HPLC and confirmed by GC/MS. All solvents were of analytical grade (Merck) and were used without further purification.
(§3) Enzymatic reactions (oxidation of ^3H-ALLO to ^3H-5α-DHP and reduction of ^3H-5α-DHP to ^3H-ALLO): All enzymatic reactions were performed using pure recombinant type-3 human 3a-HSD expressed in E. coli and refolded and purified from bacterial inclusion bodies. ^3H-5a-DHP reduction was conducted in 100 μl reaction systems containing 100 mM sodium phosphate (pH 7.4), 4 μg of recombinant enzyme, 2 mM NADPH and 2.5 μM ^3H-5α-DHP (40 000 cpm) in 4% acetonitrile. Similarly, ^3H-ALLO oxidation was conducted in 100 μl reaction systems containing 100 mM sodium phosphate (pH 7.4), 4 μg of recombinant enzyme, 2 mM NADP^+ and 2.5 μM ^3H-ALLO (40 000 cpm) in 4% acetonitrile. Reactions were initiated by the addition of the respective substrate and were incubated at 37° C. for 25 min. […]

3a-HSD type III = target: T3, 3a-HSD type III (Homo sapiens, UniProt P52895); test: NMR screening of fragment library; assay type: binding
T3 construct: Full length type III 3a-HSD cDNA is amplified by RT-PCR from human fetal brain total RNA; made in house; host or cells: E. coli BL21 (DE3)
T3 sequence (P52895 1-323): T1 sequence (P52895 1-323)
From the text: NMR spectroscopy can be used to discover and design inhibitors of 3a-HSD type III. This is due to the well-known ability of NMR to detect interactions between ligands and a target protein, even if the interactions are only weak and have affinities in the millimolar range (Diercks, T.; Coles, M.; Kessler, H. Applications of NMR in drug discovery. Curr. Opin. Chem. Biol. 2001, 5, 285-291; Hajduk, P. J.; Meadows, R. P.; Fesik, S. W. NMR-based screening in drug discovery. Q. Rev. Biophys. 1999, 32, 211-240; Pellecchia, M.; Sem, D. S.; Wuthrich, K. NMR in drug discovery. Nature Reviews Drug Discovery 2002, 1, 211-219). For this purpose, a solution of 3a-HSD is added to a mixture of compounds, and NMR properties of the compounds, such as their relaxation rates, are measured and compared in the presence and absence of 3a-HSD. […] This effect can be enhanced by about a factor of 15 if side chains of 3a-HSD are spin-labeled with paramagnetic centers such as TEMPO (2,2,6,6-Tetramethylpiperidin-N-oxyl) or PROXYL (2,2,5,5-Tetramethylpyrrolidine-N-oxyl) (Jahnke, W.; Ruedisser, S.; Zurini, M. Spin Label Enhanced NMR Screening. J. Am. Chem. Soc. 2001, 123, 3149-3150; Jahnke, W. Spin labels as a tool to identify and characterize protein—ligand interactions by NMR spectroscopy. ChemBioChem 2002, 3, 167-173). […]

[3] = substrate: CC(=O)[C@H]1CC[C@H]2[C@@H]3CC[C@H]4C[C@H](O)CC[C@]4(C)[C@H]3CC[C@]12C; test: functional in vitro assay, oxidation of 3H-ALLO to 3H-5α-DHP; assay type: biochemical; conditions: other: oxidation of ALLO by the type-3 human 3a-HSD; pH 7.4; 37.0 °C
From the text: as §2, §3

In the case of `CC(=O)[C@H]1CC[C@H]2[C@@H]3CC[C@H]4C[C@H](O)CC[C@]4(C)[C@H]3CC[C@]12C` [allopregnanolone, 3α-hydroxy-5a-pregnan-20-one], the “binding to 3a-HSD detected by NMR line broadening” value (3a-HSD) is reported as “proven” and the maximum achievable concentration [1] is reported as “about 20 μM”.

For `CC(=O)c1cc2ccccc2o1` [2-acetylbenzofuran], the Ki [2] was ~132 µM, the “binding to 3a-HSD” value (3a-HSD type III; NMR screening hit) was “only weakly” and the dissociation rate (3a-HSD type III; observed by NMR, severe line broadening) was “so slow”.

In the case of `NC(=O)c1ccc[n+]([C@@H]2O[C@H](COP(=O)([O-])OP(=O)(O)OC[C@H]3O[C@@H](n4cnc5c(N)ncnc54)[C@H](OP(=O)(O)O)[C@@H]3O)[C@@H](O)[C@H]2O)c1` [NADP], the “binding to 3a-HSD detected by NMR line broadening” value (3a-HSD) is reported as “proves binding”.

B1: recombinant type-3 human 3a-HSD (Homo sapiens) (protein)
chain: T1 sequence (P52895 1-323)
For B1, the Km [3] was 4.9 µM.
